In ChEMBL document CHEMBL1125983, “Synthesis and evaluation of new protein-tyrosine kinase inhibitors. Part 2. Phenylhydrazones” (Bioorg Med Chem Lett, 1991):

molecular target: Tyrosine-protein kinase Lck (Homo sapiens, UniProt P06239); test: Inhibitory concentration against phosphorylation of angiotensin I catalyzed by protein-tyrosine kinase p56lck
Sequence (P06239 whole entry): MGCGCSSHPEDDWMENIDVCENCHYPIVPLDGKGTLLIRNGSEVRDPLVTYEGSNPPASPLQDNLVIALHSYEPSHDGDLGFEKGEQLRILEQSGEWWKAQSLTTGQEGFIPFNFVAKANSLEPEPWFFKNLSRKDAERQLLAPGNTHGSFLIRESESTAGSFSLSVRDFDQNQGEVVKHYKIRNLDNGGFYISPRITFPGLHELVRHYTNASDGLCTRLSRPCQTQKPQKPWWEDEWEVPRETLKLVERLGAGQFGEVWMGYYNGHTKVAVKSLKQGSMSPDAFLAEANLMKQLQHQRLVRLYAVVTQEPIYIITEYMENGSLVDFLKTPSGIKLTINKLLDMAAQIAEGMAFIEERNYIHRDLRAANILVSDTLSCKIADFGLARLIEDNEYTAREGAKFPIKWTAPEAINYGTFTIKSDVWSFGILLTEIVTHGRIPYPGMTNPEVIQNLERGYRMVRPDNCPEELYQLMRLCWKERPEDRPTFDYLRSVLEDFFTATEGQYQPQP

SMILES	IC50
COc1ccc(N/N=C/c2cccc(O)c2O)cc1	0.31 mM
C(=N\Nc1ccccc1)/c1ccncc1	> 4.06 mM
O=[N+]([O-])c1ccc(N/N=C/c2ccc(O)c(O)c2O)c([N+](=O)[O-])c1	0.144 mM
COc1ccc(/C=N/Nc2ccc(Br)cc2)cc1O	> 2.49 mM
COc1cc(/C=N/Nc2ccccc2)ccc1O	2.59 mM
Oc1ccc(/C=N/Nc2ccccn2)cc1O	0.227 mM
Oc1ccc(/C=N/Nc2ccc(Br)cc2)c(O)c1O	1.04 mM
O=[N+]([O-])c1cccc(/C=N/Nc2ccccc2)c1	> 3.32 mM
O=[N+]([O-])c1ccc(N/N=C/c2ccc(O)cc2O)c([N+](=O)[O-])c1	1 mM
Oc1ccc(/C=N/Nc2ccccn2)c(O)c1	1.01 mM
C(=N\Nc1ccccc1)/c1cccnc1	1.32 mM
Oc1ccc(O)c(/C=N/Nc2ccccc2)c1	> 3.5 mM
COc1ccc(N/N=C/c2cc(O)ccc2O)cc1	0.31 mM
Brc1ccc(N/N=C/c2ccncc2)cc1	> 2.9 mM
Brc1ccc(N/N=C/c2ccccn2)cc1	> 2.9 mM
Oc1cccc(/C=N/Nc2ccccc2)c1O	1.26 mM
Oc1ccc(/C=N/Nc2ccccc2)cc1O	0.07 mM

SMILES	IC50
Oc1cc(/C=N/Nc2ccccn2)cc(O)c1O	0.179 mM
Oc1ccc(/C=N/Nc2ccc(Br)cc2)c(O)c1	0.521 mM
Oc1ccc(Br)cc1/C=N/Nc1ccccc1	> 2.6 mM
C(=N\Nc1ccccn1)/c1cccnc1	0.4 mM
Brc1ccc(N/N=C/c2cccnc2)cc1	> 2.9 mM
Oc1ccc(Br)cc1/C=N/Nc1ccc(Br)cc1	> 2.16 mM
COc1ccc(/C=N/Nc2ccccc2)cc1O	2.11 mM
COc1ccc(N/N=C/c2ccc(O)c(O)c2)cc1	0.743 mM
Oc1ccc(/C=N/Nc2ccccn2)c(O)c1O	0.522 mM
O=[N+]([O-])c1ccc(/C=N/Nc2ccccc2)cc1	> 3.32 mM
C(=N\Nc1ccccc1)/c1ccccn1	> 4.06 mM
Oc1ccc(/C=N/Nc2ccccc2)c(O)c1O	1.57 mM
O=[N+]([O-])c1ccc(N/N=C/c2cccc(O)c2O)c([N+](=O)[O-])c1	> 2.51 mM
Oc1ccc(/C=N/Nc2ccccc2)c(O)c1	0.35 mM
Oc1ccc(/C=N/Nc2ccc(Br)cc2)cc1O	0.599 mM
O=[N+]([O-])c1ccc(N/N=C/c2ccc(O)c(O)c2)c([N+](=O)[O-])c1	0.352 mM
